Test results published in patent EP4711368A1 (priority 2023, dated 2024).
Like-named read-outs stand apart in the source and are kept apart here.

Key:
[1] = system: SD rats; assay: animal or person; format: in vivo; conditions: iv; for minimal effective dose: Rattus norvegicus; for Onset time / Righting feflex duration / Sedation Duration: rat, in vivo
[2] = system: SD rats; conditions: rat, in vivo; for MLD: iv
[3] = read-out: Minimal effective anesthetic dose
[4] = read-out: Minimal effective analgesic dose

Row | Compound | minimal effective dose [1, 3] [mg/kg] | Onset time [1] [min] | Righting feflex duration [1] [min] | Sedation Duration [1] [min] | TI ([2]; SD) | MLD ([2]; SD) [mg/kg] | minimal effective dose [1, 4] [mg/kg] | MLD [2] [mg/kg]
1 | CCC(C)OC(=O)CN1N=C(c2ccccn2)c2cc(Br)ccc2N(C)C1=O (centres unmarked) [Compound 241] | 7.5 | 0.43 to 0.90 | 3.47 to 30.13 | 18.10 to 73.95 | 4 | 30 |  | 
2 | CC[C@H](C)OC(=O)CN1N=C(c2ccccn2)c2cc(Br)ccc2N(C)C1=O [Compound 242] | 7.5 | 0.28 to 0.55 | 5.05 to 18.42 | 19.98 to 46.92 | 4 | 30 |  | 
3 | CC[C@@H](C)OC(=O)CN1N=C(c2ccccn2)c2cc(Br)ccc2N(C)C1=O [Compound 243] | 5 | 0.22 to 0.67 | 0.65 to 19.85 | 21.98 to 55.45 | 6 | 30 |  | 
4 | CN1C(=O)N(CC(=O)OC2CC2)N=C(c2ccccn2)c2cc(Br)ccc21 [Compound 244] | 15 | 0.15 to 0.18 | 0.78 to 3.85 | 11.42 to 18.83 | 2.7 | 40 |  | 
5 | CN1C(=O)N(CC(=O)OC2COC2)N=C(c2ccccn2)c2cc(Br)ccc21 [Compound 245] | 10 | 0.15 to 0.67 | 1.27 to 1.40 | 11.02 to 18.83 | 4 | 40 | 20 | 
6 | CCC(CC)OC(=O)CN1N=C(c2ccccn2)c2cc(Br)ccc2N(C)C1=O [Compound 247] | 20 | 0.28 | 30.15 | 88.25 | 1.5 | 30 | 20 | 
7 | C=CC(C)OC(=O)CN1N=C(c2ccccn2)c2cc(Br)ccc2N(C)C1=O (centres unmarked) [Compound 248] | 10 | 0.15 to 0.52 | 2.97 to 38.32 | 138.4 to 240 | 4 | 40 | 20 | 
8 | CC(C)C(C)OC(=O)CN1N=C(c2ccccn2)c2cc(Br)ccc2N(C)C1=O (centres unmarked) [Compound 249] | 10 | 0.50 to 0.62 | 6.55 to 13.37 | 23.30 to 42.37 | 2 | 20 | 15 | 
9 | CC(OC(=O)CN1N=C(c2ccccn2)c2cc(Br)ccc2N(C)C1=O)C1CC1 (centres unmarked) [Compound 250] | 20 | 0.53 | 13.62 | 21.55 | >1 |  |  | 
10 | C#C[C@H](C)OC(=O)CN1N=C(c2ccccn2)c2cc(Br)ccc2N(C)C1=O [Compound 252] | 20 | 0.43 | 2.92 to 5.05 | 9.95 to 10.58 | 2 | 40 | 30 | 
11 | CN1C(=O)N(CC(=O)OC2(C)COC2)N=C(c2ccccn2)c2cc(Br)ccc21 [Compound 253] | 10 | 0.87 to 0.88 | 1.38 to 11.07 | 10.13 to 31.28 | 3 | 30 | 20 | 
12 | C=CC1(OC(=O)CN2N=C(c3ccccn3)c3cc(Br)ccc3N(C)C2=O)COC1 [Compound 254] | 10 | 0.60 to 0.65 | 0.78 to 3.10 | 29.25 to 40.22 | 2 | 20 |  | 
13 | CCC(C)(C)OC(=O)CN1N=C(c2ccccn2)c2cc(Br)ccc2N(C)C1=O [Compound 255] | 15 | 0.53 to 0.97 | 12.27 to 13.62 | 43.43 to 66.14 | 2 | 30 | 20 | 
14 | CCN1C(=O)N(CC(=O)OC(C)C)N=C(c2ccccn2)c2cc(Br)ccc21 [Compound 256] | 5 | 0.17 to 0.50 | 0.32 to 26.03 | 13.38 to 59.65 | 6 | 30 | 10 | 
15 | CC(C)OC(=O)CN1N=C(c2ccccn2)c2cc(Br)ccc2N(C(C)C)C1=O [Compound 257] | 10 | 0.77 to 1.48 | 5.85 to 20.40 | 33.47 to 64.03 | 4 | 40 | 10 | 
16 | CC(C)OC(=O)CCN1N=C(c2ccccn2)c2cc(Br)ccc2N(C)C1=O [Compound 260] | 40 | 0.12 | 7.52 | 55.52 | 1.4 | 55 | 40 | 
17 | CCn1nnnc1CCN1N=C(c2ccccn2)c2cc(Br)ccc2N(C)C1=O [Compound 264] | 5 | 0.43 | 1.77 | 8.93 | 2 | 10 |  | 
18 | CC(C)n1nnnc1CCN1N=C(c2ccccn2)c2cc(Br)ccc2N(C)C1=O [Compound 266] | 5 | 0.40 to 0.52 | 0.58 to 4.00 | 12.07 to 16.32 | 3 |  |  | 15
19 | CC(C)n1nnc(CCN2N=C(c3ccccn3)c3cc(Br)ccc3N(C)C2=O)n1 [Compound 267] | 20 | 0.72 | 0.28 | 12.33 | 2 | 40 |  | 
20 | COc1nonc1CCN1N=C(c2ccccn2)c2cc(Br)ccc2N(C)C1=O [Compound 273] | 10 | 0.25 to 0.27 | 2.38 to 9.68 | 43.97 to 44.82 | >2 | >20 |  | 
21 | CCOc1nonc1CCN1N=C(c2ccccn2)c2cc(Br)ccc2N(C)C1=O [Compound 274] | 27.4 | 0.18 | 4.57 | 25.87 | >1 | >27.4 |  | 
22 | CC(C)Oc1nonc1CCN1N=C(c2ccccn2)c2cc(Br)ccc2N(C)C1=O [Compound 275] | 30 | 0.93 to 4.90 | 6.37 to 17.25 |  | >2 | >60 |  | 
23 | CC(C)C(=O)CN1N=C(c2ccccn2)c2cc(Br)ccc2N(C)C1=O [Compound 279] | 15 | 0.35 | 3.77 | 62.22 | 1.3 |  |  | 20
24 | CN1C(=O)N(CCc2cccs2)N=C(c2ccccn2)c2cc(Br)ccc21 [Compound 284] | 40 | 0.2 | 20 | 70.72 | >1 | >40 |  | 
25 | CN1C(=O)N(COCc2ccccc2)N=C(c2ccccn2)c2cc(Br)ccc21 [Compound 286] | 2.5 | 1.32 to 3.20 | 3.38 to 9.38 | 42.15 to 64.37 | 3 | 7.5 |  | 
